system: Acinetobacter baumannii ATCC17961; test: 90% Growth Inhibitory Concentration (IC90) determination, antimicrobial susceptibility testing; assay type: cell-based; details: Acinetobacter baumannii, ATCC17961, 16 h, Acinetobacter baumannii ATCC17961; Iso-Sensitest broth; growth by optical density at 600 nm over 16h; concentration inhibiting 90% of the growth; read-out: ATCC 17961 IC90
Summary of the method: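 Broth microdilution in Iso-Sensitest medium, compounds twofold diluted (e.g. 50–0.097 μM final), inoculum ~5×10^(5) CFU/ml, 35±2° C. OD600 was read every 20 min over 16 h. IC90 was derived from growth inhibition during logarithmic growth.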

Structure (SMILES)	IC90
Cn1c(-c2cn(-c3ccc(Cl)cn3)nc2C(F)(F)F)cnc1C(=O)Nc1ccc(C(=O)N2CCN(C(=O)C3CCNCC3)CC2)c(Cl)c1 [Example A3, N-[3-chloro-4-[4-(piperidine-4-carbonyl)piperazine-1-carbonyl]phenyl]-5-[1-(5-chloro-2-pyridyl)-3-(trifluoromethyl)pyrazol-4-yl]-1-methyl-imidazole-2-carboxamide]	370 nM
Cn1c(-c2cn(-c3ccc(N)cn3)nc2C(F)(F)F)cnc1C(=O)Nc1ccc(C(=O)N2C3CCC2CNC3)c(Cl)c1 [Example Z62, 5-[1-(5-amino-2-pyridyl)-3-(trifluoromethyl)pyrazol-4-yl]-N-[3-chloro-4-(3,8-diazabicyclo[3.2.1]octane-8-carbonyl)phenyl]-1-methyl-imidazole-2-carboxamide]	380 nM
Cn1c(-c2cn(-c3ncc(NCCN)cn3)nc2C(F)(F)F)cnc1C(=O)Nc1ccc(C(=O)N2CCN(C(=O)C3CCNCC3)CC2)c(Cl)c1 [Example B2, 5-[1-[5-(2-aminoethylamino)pyrimidin-2-yl]-3-(trifluoromethyl)pyrazol-4-yl]-N-[3-chloro-4-[4-(piperidine-4-carbonyl)piperazine-1-carbonyl]phenyl]-1-methyl-imidazole-2-carboxamide]	170 nM
Cn1c(-c2cn(-c3ncc(F)cn3)nc2C(F)(F)F)cnc1C(=O)Nc1ccc(C(=O)N2CCN(C(=O)C3CCNCC3)CC2)c(Cl)c1 [Example A8, N-[3-chloro-4-[4-(piperidine-4-carbonyl)piperazine-1-carbonyl]phenyl]-5-[1-(5-fluoropyrimidin-2-yl)-3-(trifluoromethyl)pyrazol-4-yl]-1-methyl-imidazole-2-carboxamide]	910 nM
CNc1ccnc(-n2cc(-c3cnc(C(=O)Nc4ccc(C(=O)N5CCN(C(=O)C6CCNCC6)CC5)c(Cl)c4)n3C)c(C(F)(F)F)n2)n1 [Example A16, N-[3-chloro-4-[4-(piperidine-4-carbonyl)piperazine-1-carbonyl]phenyl]-1-methyl-5-[1-[4-(methylamino)pyrimidin-2-yl]-3-(trifluoromethyl)pyrazol-4-yl]imidazole-2-carboxamide]	680 nM
COc1nccc(-n2cc(-c3cnc(C(=O)Nc4ccc(C(=O)N5CCN(C(=O)C6CCNCC6)CC5)c(Cl)c4)n3C)c(C(F)(F)F)n2)n1 [Example C6, N-[3-chloro-4-[4-(piperidine-4-carbonyl)piperazine-1-carbonyl]phenyl]-5-[1-(2-methoxypyrimidin-4-yl)-3-(trifluoromethyl)pyrazol-4-yl]-1-methyl-imidazole-2-carboxamide]	890 nM
COCCOc1cnc(-n2cc(-c3cnc(C(=O)Nc4ccc(C(=O)N5CCN(C(=O)C6CCNCC6)CC5)c(Cl)c4)n3C)c(C(F)(F)F)n2)nc1 [Example A6, N-[3-chloro-4-[4-(piperidine-4-carbonyl)piperazine-1-carbonyl]phenyl]-5-[1-[5-(2-methoxyethoxy)pyrimidin-2-yl]-3-(trifluoromethyl)pyrazol-4-yl]-1-methyl-imidazole-2-carboxamide]	540 nM

Next, values leading:

IC90	Structure (SMILES)
950 nM	Cn1c(-c2cn(-c3ccc(N)cn3)nc2C(F)(F)F)cnc1C(=O)Nc1ccc(C(=O)N[C@H]2C[C@H](N)C2)c(Cl)c1 [Example Z19, N-[4-[trans-(3-aminocyclobutyl)carbamoyl]-3-chloro-phenyl]-5-[1-(5-amino-2-pyridyl)-3-(trifluoromethyl)pyrazol-4-yl]-1-methyl-imidazole-2-carboxamide]
1370 nM	Cn1c(-c2cn(-c3ccc(N)cn3)nc2C(F)(F)F)cnc1C(=O)Nc1ccc(C(=O)N2C[C@H]3CN[C@H]3C2)c(Cl)c1 [Example Z70, 5-[1-(5-amino-2-pyridyl)-3-(trifluoromethyl)pyrazol-4-yl]-N-[3-chloro-4-[(1R,5R)-3,6-diazabicyclo[3.2.0]heptane-3-carbonyl]phenyl]-1-methyl-imidazole-2-carboxamide]
1590 nM	Cn1c(-c2cn(-c3ccc(N)cn3)nc2C(F)(F)F)cnc1C(=O)Nc1ccc(C(=O)NCC2CC2N)c(Cl)c1 (centres unmarked) [Example Z18, N-[4-[(2-aminocyclopropyl)methylcarbamoyl]-3-chloro-phenyl]-5-[1-(5-amino-2-pyridyl)-3-(trifluoromethyl)pyrazol-4-yl]-1-methyl-imidazole-2-carboxamide]
390 nM	Cn1c(-c2cn(-c3ccc(N)cn3)nc2C(F)(F)F)cnc1C(=O)Nc1ccc(C(=O)N2CCNCC2)c(Cl)c1 [Example Z32, 5-[1-(5-amino-2-pyridyl)-3-(trifluoromethyl)pyrazol-4-yl]-N-[3-chloro-4-(piperazine-1-carbonyl)phenyl]-1-methyl-imidazole-2-carboxamide]
990 nM	Cn1c(-c2cn(-c3ccc(N)cn3)nc2C(F)(F)F)cnc1C(=O)Nc1ccc(C(=O)N2CCNC3(CC3)C2)c(Cl)c1 [Example Z51, 5-[1-(5-amino-2-pyridyl)-3-(trifluoromethyl)pyrazol-4-yl]-N-[3-chloro-4-(4,7-diazaspiro[2.5]octane-7-carbonyl)phenyl]-1-methyl-imidazole-2-carboxamide]
380 nM	Cn1c(-c2cn(-c3cc(Cl)c(N)cn3)nc2C(F)(F)F)cnc1C(=O)Nc1ccc(C(=O)N2CCN(C(=O)C3CCNCC3)CC2)c(Cl)c1 [Example Z80, 5-[1-(5-amino-4-chloro-2-pyridyl)-3-(trifluoromethyl)pyrazol-4-yl]-N-[3-chloro-4-[4-(piperidine-4-carbonyl)piperazine-1-carbonyl]phenyl]-1-methyl-imidazole-2-carboxamide]
760 nM	Cn1c(-c2cn(-c3ccc(N)cn3)nc2C(F)(F)F)cnc1C(=O)Nc1ccc(C(=O)NCCN2CCNCC2)c(Cl)c1 [Example Z65, 5-[1-(5-amino-2-pyridyl)-3-(trifluoromethyl)pyrazol-4-yl]-N-[3-chloro-4-(2-piperazinoethylcarbamoyl)phenyl]-1-methyl-imidazole-2-carboxamide]
250 nM	Cn1c(-c2cn(-c3ccc(N)cn3)nc2C(F)(F)F)cnc1C(=O)Nc1ccc(C(=O)N2CC[C@@H](CN)C2)c(Cl)c1 [Example Z7, N-[4-[(3S)-3-(aminomethyl)pyrrolidine-1-carbonyl]-3-chloro-phenyl]-5-[1-(5-amino-2-pyridyl)-3-(trifluoromethyl)pyrazol-4-yl]-1-methyl-imidazole-2-carboxamide]
980 nM	Cn1c(-c2cn(-c3ccc(NC(=O)C4CCNCC4)cn3)nc2C(F)(F)F)cnc1C(=O)Nc1ccc(C(=O)N2CCN(C(=O)C3CCNCC3)CC2)c(Cl)c1 [Example Z88, N-[6-[4-[2-[[3-chloro-4-(4-isonipecotoylpiperazine-1-carbonyl)phenyl]carbamoyl]-3-methyl-imidazol-4-yl]-3-(trifluoromethyl)pyrazol-1-yl]-3-pyridyl]isonipecotamide]
510 nM	Cn1c(-c2cn(-c3ccc(N)cn3)nc2C(F)(F)F)cnc1C(=O)Nc1ccc(C(=O)N2CCC3(CC2)CCN(C(=O)[C@@H]2C[C@@H](O)CN2)C3)c(Cl)c1 [Example Z22, 5-[1-(5-amino-2-pyridyl)-3-(trifluoromethyl)pyrazol-4-yl]-N-[3-chloro-4-[2-[(2S,4R)-4-hydroxyprolyl]-2,8-diazaspiro[4.5]decane-8-carbonyl]phenyl]-1-methyl-imidazole-2-carboxamide]
